According to paper PMC12377105, “Development of eugenol derivatives with 5-LOX inhibitory activity” (Journal of Enzyme Inhibition and Medicinal Chemistry, 2025):
Several values for one entry are separate records, joined by “and”; a condition that tells them apart may be missing. Identical values can stand only once.

Target: T1, soybean lipoxygenase (model enzyme for 5-LOX) (Glycine max, UniProt P08170)
T1 sequence (P08170 1-839): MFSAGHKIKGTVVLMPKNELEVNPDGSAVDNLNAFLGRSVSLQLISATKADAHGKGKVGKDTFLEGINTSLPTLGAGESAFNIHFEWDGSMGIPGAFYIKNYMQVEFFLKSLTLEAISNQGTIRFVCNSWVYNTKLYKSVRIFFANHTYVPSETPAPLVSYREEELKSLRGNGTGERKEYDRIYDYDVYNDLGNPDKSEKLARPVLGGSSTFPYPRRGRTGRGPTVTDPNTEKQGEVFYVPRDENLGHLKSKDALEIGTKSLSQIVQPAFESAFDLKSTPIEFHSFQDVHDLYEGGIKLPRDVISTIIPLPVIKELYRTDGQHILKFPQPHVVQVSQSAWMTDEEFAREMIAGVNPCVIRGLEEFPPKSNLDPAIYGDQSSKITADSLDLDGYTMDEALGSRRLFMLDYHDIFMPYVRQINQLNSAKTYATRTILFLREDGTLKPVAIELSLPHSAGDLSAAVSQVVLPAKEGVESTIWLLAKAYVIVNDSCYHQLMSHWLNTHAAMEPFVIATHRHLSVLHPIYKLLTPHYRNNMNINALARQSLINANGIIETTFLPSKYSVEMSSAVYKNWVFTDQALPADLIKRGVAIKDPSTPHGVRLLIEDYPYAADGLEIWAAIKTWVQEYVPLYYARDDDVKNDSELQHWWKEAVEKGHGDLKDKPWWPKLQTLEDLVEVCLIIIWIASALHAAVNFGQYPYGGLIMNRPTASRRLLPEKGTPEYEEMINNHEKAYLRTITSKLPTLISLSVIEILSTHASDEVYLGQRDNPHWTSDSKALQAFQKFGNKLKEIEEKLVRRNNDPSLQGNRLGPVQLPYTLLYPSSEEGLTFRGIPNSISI
Assay: In vitro 5-LOX inhibition assay (soybean lipoxygenase, oxidation of linoleic acid at 234 nm)
Format: biochemical
Details: for IC50: dose-response, concentration range 6.25-100 µM
Experimental: Soybean lipoxygenase (linoleate 13S-lipoxygenase) is widely accepted as a model enzyme to screen compounds for LOX inhibition due to the high degree of binding site similarity between plant LOXs and animal 5-LOX[20]. LOX inhibition was assessed at room temperature, following the oxidation of linoleic acid to 13-hydroperoxylinoleic acid at 234 nm, according to a described procedure. The assay was performed by adding 20 μL of each eugenol derivative (1.3 mM) dissolved in phosphate buffer, 200 μL of phosphate buffer (pH 9.0) and 20 μL of soybean lipoxygenase solution (100 U). After 5 min of incubation at room temperature, the reaction was initiated by the addition of 20 μL of linoleic acid (4.18 mM in ethanol), absorbance being monitored during 3 min, using a Multiskan GO plate reader (Thermo Fisher Scientific; Waltham, MA, USA). The inhibition of enzyme activity was then calculated by comparing the reaction rate with the control (no compound). Quercetin (50 μM, final concentration) was used as a positive control.

[1] = 100 µM, cell-free preliminary screening

Compound	IC50	inhibition at 100 µM [1] [%]	5-LOX inhibitory activity (in words) [1]
COc1cc(CC(O)CN2CCCCC2)ccc1O (stereo not drawn) [8c]	–	–	did not show statistically significant inhibition
COc1cc(CC(O)CN(C)c2ccccc2)ccc1O (stereo not drawn) [8d]	–	–	statistically significant activity
COc1ccc(NCC(O)Cc2ccc(O)c(OC)c2)cc1 (stereo not drawn) [8g]	–	–	statistically significant activity
COc1cccc(NCC(O)Cc2ccc(O)c(OC)c2)c1 (stereo not drawn) [8h]	–	–	statistically significant activity
COc1cc(CC(O)CNc2cccc(Br)c2)ccc1O (stereo not drawn) [8i]	–	–	did not show statistically significant inhibition
COCC(O)Cc1ccc(O)c(OC)c1 (stereo not drawn) [7a]	–	–	inactive
COc1cc(CC(O)COC(C)(C)C)ccc1O (stereo not drawn) [7c, 4-(3-(tert-butoxy)-2-hydroxypropyl)-2-methoxyphenol]	< 100 µM and 33.8 µM	–	almost full inhibition
COc1cc(CC2CO2)ccc1O (stereo not drawn) [compound 6, 2-methoxy-4-(oxiran-2-ylmethyl)phenol]	–	–	did not show inhibitory activity
COc1cc(CC(O)CNc2ccc(C#N)cc2)ccc1O (stereo not drawn) [8f]	–	–	did not show statistically significant inhibition
COc1cc(CC(O)COc2ccccc2)ccc1O (stereo not drawn) [7f]	–	–	inactive
COc1cc(CC(O)CNc2ccccc2)ccc1O (stereo not drawn) [8e]	–	–	did not show statistically significant inhibition
CCCCCCC(C)NCC(O)Cc1ccc(OC)c(O)c1 (stereo not drawn) [8b]	–	–	did not show statistically significant inhibition
COc1cc(CC(O)C[N+](=O)[O-])ccc1O (stereo not drawn) [9a]	–	–	did not show statistically significant inhibition

Further lines, with some results ahead:

IC50	inhibition at 100 µM [1] [%]	Compound	5-LOX inhibitory activity (in words) [1]
< 100 µM and 76.2 µM	–	C=CCc1ccc(OCCCC(=O)OCC)c(OC)c1 [4e, ethyl-4-(4-allyl-2-methoxyphenoxy)butanoate]	statistically significant reduction in 5-LOX activity
< 100 µM and 36.9 µM	–	COc1cc(CC2CO2)ccc1OCCCOC(C)=O (stereo not drawn) [5d, 3-(2-methoxy-4-(oxiran-2-ylmethyl)phenoxy)propyl acetate]	highly active
–	~30	CCOCC(O)Cc1ccc(O)c(OC)c1 (stereo not drawn) [7b]	–
< 100 µM and 34 µM	–	C=CCc1ccc(O)c(O)c1 [compound 2, 4-allylbenzene-1,2-diol]	promising activity
